Legend:
Test in all cases: relative viability (nuclei count vs DMSO), 5 days (fraction); higher = more cells survive
NCI-H647 = test system: NCI-H647
Summary of the method: (§1)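 Each reported value is a median over duplicate plates. It expresses relative viability: treated-well nuclei count divided by vehicle-well nuclei count. Lung cancer cell lines in 1536-well plates were dosed by pin tool a day after seeding, alone with one drug or with a fixed anchor-drug dose plus five library-drug doses (not always all listed) in √10 steps, and nuclei were counted after 5 days.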

PC-14 = test system: PC-14
Summary of the method: as §1

SW 900 = test system: SW 900
Summary of the method: as §1

NCI-H520 = test system: NCI-H520
Summary of the method: as §1

HCC-15 = test system: HCC-15
Summary of the method: as §1

UMC-11 = test system: UMC-11
Summary of the method: as §1

NCI-H322M = test system: NCI-H322M
Summary of the method: as §1

NCI-H2405 = test system: NCI-H2405
Summary of the method: as §1

NCI-H2170 = test system: NCI-H2170
Summary of the method: as §1

NCI-H441 = test system: NCI-H441
Summary of the method: as §1

NCI-H1734 = test system: NCI-H1734
Summary of the method: as §1

NCI-H1793 = test system: NCI-H1793
Summary of the method: as §1

NCI-H3122 = test system: NCI-H3122
Summary of the method: as §1

NCI-H2023 = test system: NCI-H2023
Summary of the method: as §1

NCI-H1650 = test system: NCI-H1650
Summary of the method: as §1

EPLC-272H = test system: EPLC-272H
Summary of the method: as §1

H3255 = test system: H3255
Summary of the method: as §1

LOU-NH91 = test system: LOU-NH91
Summary of the method: as §1

COR-L23 = test system: COR-L23
Summary of the method: as §1

201T = test system: 201T
Summary of the method: as §1

NCI-H2347 = test system: NCI-H2347
Summary of the method: as §1

Structure (SMILES): COc1nc(C)cnc1NS(=O)(=O)c1cccnc1-c1ccc(-c2nnco2)cc1 [Zibotentan] + O=C(CCCCCCC(=O)Nc1ccccc1)NO [Vorinostat] (partner 1 µM)
- relative viability (NCI-H647; first compound 0.08 µM): 0.649
- relative viability (NCI-H647; first compound 0.253 µM): 0.381
- relative viability (NCI-H647; first compound 0.8 µM): 0.718
- relative viability (NCI-H647; first compound 2.53 µM): 0.698
- relative viability (PC-14; first compound 0.08 µM): 0.937
- relative viability (PC-14; first compound 0.253 µM): 0.421
- relative viability (PC-14; first compound 0.8 µM): 0.81
- relative viability (PC-14; first compound 2.53 µM): 0.77
- relative viability (SW 900; first compound 0.08 µM): 0.559
- relative viability (SW 900; first compound 0.253 µM): 0.404
- relative viability (SW 900; first compound 0.8 µM): 0.552
- relative viability (SW 900; first compound 2.53 µM): 0.588
- relative viability (NCI-H520; first compound 0.08 µM): 0.778
- relative viability (NCI-H520; first compound 0.253 µM): 0.799
- relative viability (NCI-H520; first compound 0.8 µM): 0.794
- relative viability (NCI-H520; first compound 2.53 µM): 0.711
- relative viability (HCC-15; first compound 0.08 µM): 0.859
- relative viability (HCC-15; first compound 0.253 µM): 0.863
- relative viability (HCC-15; first compound 0.8 µM): 0.879
- relative viability (HCC-15; first compound 2.53 µM): 0.84
- relative viability (UMC-11; first compound 0.08 µM): 0.408
- relative viability (UMC-11; first compound 0.253 µM): 0.418
- relative viability (UMC-11; first compound 0.8 µM): 0.384
- relative viability (UMC-11; first compound 2.53 µM): 0.293
- relative viability (NCI-H322M; first compound 0.08 µM): 1.03
- relative viability (NCI-H322M; first compound 0.253 µM): 0.748
- relative viability (NCI-H322M; first compound 0.8 µM): 0.895
- relative viability (NCI-H322M; first compound 2.53 µM): 0.93
- relative viability (NCI-H2405; first compound 0.08 µM): 1.25
- relative viability (NCI-H2405; first compound 0.253 µM): 0.829
- relative viability (NCI-H2405; first compound 0.8 µM): 0.957
- relative viability (NCI-H2405; first compound 2.53 µM): 1.12
- relative viability (NCI-H2170; first compound 0.08 µM): 0.883
- relative viability (NCI-H2170; first compound 0.253 µM): 0.778
- relative viability (NCI-H2170; first compound 0.8 µM): 0.875
- relative viability (NCI-H2170; first compound 2.53 µM): 0.908
- relative viability (NCI-H441; first compound 0.08 µM): 0.78
- relative viability (NCI-H441; first compound 0.253 µM): 0.721
- relative viability (NCI-H441; first compound 0.8 µM): 0.783
- relative viability (NCI-H441; first compound 2.53 µM): 0.794
- relative viability (NCI-H1734; first compound 0.08 µM): 0.842
- relative viability (NCI-H1734; first compound 0.253 µM): 0.705
- relative viability (NCI-H1734; first compound 0.8 µM): 0.864
- relative viability (NCI-H1734; first compound 2.53 µM): 0.912
- relative viability (NCI-H1793; first compound 0.08 µM): 0.673
- relative viability (NCI-H1793; first compound 0.253 µM): 0.673
- relative viability (NCI-H1793; first compound 0.8 µM): 0.925
- relative viability (NCI-H1793; first compound 2.53 µM): 0.973
- relative viability (NCI-H3122; first compound 0.08 µM): 1.05
- relative viability (NCI-H3122; first compound 0.253 µM): 1.03
- relative viability (NCI-H3122; first compound 0.8 µM): 1.02
- relative viability (NCI-H3122; first compound 2.53 µM): 1.02
- relative viability (NCI-H2023; first compound 0.08 µM): 0.849
- relative viability (NCI-H2023; first compound 0.8 µM): 0.562
- relative viability (NCI-H2023; first compound 2.53 µM): 0.846
- relative viability (NCI-H1650; first compound 0.08 µM): 0.528
- relative viability (NCI-H1650; first compound 0.8 µM): 0.61
- relative viability (NCI-H1650; first compound 2.53 µM): 0.646
- relative viability (EPLC-272H; first compound 0.253 µM): 0.506
- relative viability (EPLC-272H; first compound 0.8 µM): 0.667
- relative viability (EPLC-272H; first compound 2.53 µM): 0.501
- relative viability (H3255; first compound 0.08 µM): 0.926
- relative viability (H3255; first compound 0.253 µM): 0.785
- relative viability (H3255; first compound 0.8 µM): 0.877
- relative viability (H3255; first compound 2.53 µM): 0.778
- relative viability (LOU-NH91; first compound 0.08 µM): 0.941
- relative viability (LOU-NH91; first compound 0.253 µM): 0.78
- relative viability (LOU-NH91; first compound 0.8 µM): 0.953
- relative viability (LOU-NH91; first compound 2.53 µM): 0.947
- relative viability (COR-L23; first compound 0.08 µM): 0.448
- relative viability (COR-L23; first compound 0.253 µM): 0.446
- relative viability (COR-L23; first compound 0.8 µM): 0.351
- relative viability (COR-L23; first compound 2.53 µM): 0.46
- relative viability (201T; first compound 0.08 µM): 0.96
- relative viability (201T; first compound 0.253 µM): 0.972
- relative viability (201T; first compound 0.8 µM): 0.952
- relative viability (201T; first compound 2.53 µM): 1
- relative viability (NCI-H2347; first compound 0.08 µM): 0.622
- relative viability (NCI-H2347; first compound 0.253 µM): 0.566
- relative viability (NCI-H2347; first compound 0.8 µM): 0.658
- relative viability (NCI-H2347; first compound 2.53 µM): 0.744

Structure (SMILES): COc1nc(C)cnc1NS(=O)(=O)c1cccnc1-c1ccc(-c2nnco2)cc1 [Zibotentan] + O=C(c1cc(Cc2n[nH]c(=O)c3ccccc23)ccc1F)N1CCN(C(=O)C2CC2)CC1 [Olaparib] (partner 8 µM)
- relative viability (NCI-H647; first compound 0.08 µM): 0.592
- relative viability (NCI-H647; first compound 0.253 µM): 0.421
- relative viability (NCI-H647; first compound 0.8 µM): 0.665
- relative viability (NCI-H647; first compound 2.53 µM): 0.494
- relative viability (PC-14; first compound 0.08 µM): 0.206
- relative viability (PC-14; first compound 0.253 µM): 0.271
- relative viability (PC-14; first compound 0.8 µM): 0.276
- relative viability (PC-14; first compound 2.53 µM): 0.315
- relative viability (SW 900; first compound 0.08 µM): 0.922
- relative viability (SW 900; first compound 0.253 µM): 0.647
- relative viability (SW 900; first compound 0.8 µM): 0.853
- relative viability (SW 900; first compound 2.53 µM): 0.81
- relative viability (NCI-H520; first compound 0.08 µM): 0.282
- relative viability (NCI-H520; first compound 0.253 µM): 0.296
- relative viability (NCI-H520; first compound 0.8 µM): 0.252
- relative viability (NCI-H520; first compound 2.53 µM): 0.352
- relative viability (HCC-15; first compound 0.08 µM): 0.717
- relative viability (HCC-15; first compound 0.253 µM): 0.703
- relative viability (HCC-15; first compound 0.8 µM): 0.774
- relative viability (HCC-15; first compound 2.53 µM): 0.649
- relative viability (UMC-11; first compound 0.08 µM): 0.321
- relative viability (UMC-11; first compound 0.253 µM): 0.409
- relative viability (UMC-11; first compound 0.8 µM): 0.44
- relative viability (UMC-11; first compound 2.53 µM): 0.438
- relative viability (NCI-H322M; first compound 0.08 µM): 0.758
- relative viability (NCI-H322M; first compound 0.253 µM): 0.659
- relative viability (NCI-H322M; first compound 0.8 µM): 0.949
- relative viability (NCI-H322M; first compound 2.53 µM): 0.727
- relative viability (NCI-H2405; first compound 0.08 µM): 0.878
- relative viability (NCI-H2405; first compound 0.253 µM): 0.843
- relative viability (NCI-H2405; first compound 0.8 µM): 0.915
- relative viability (NCI-H2405; first compound 2.53 µM): 0.892
- relative viability (NCI-H2170; first compound 0.08 µM): 0.571
- relative viability (NCI-H2170; first compound 0.253 µM): 0.648
- relative viability (NCI-H2170; first compound 0.8 µM): 0.522
- relative viability (NCI-H2170; first compound 2.53 µM): 0.568
- relative viability (NCI-H441; first compound 0.08 µM): 0.549
- relative viability (NCI-H441; first compound 0.253 µM): 0.517
- relative viability (NCI-H441; first compound 0.8 µM): 0.638
- relative viability (NCI-H441; first compound 2.53 µM): 0.576
- relative viability (NCI-H1734; first compound 0.08 µM): 0.593
- relative viability (NCI-H1734; first compound 0.253 µM): 0.588
- relative viability (NCI-H1734; first compound 0.8 µM): 0.653
- relative viability (NCI-H1734; first compound 2.53 µM): 0.699
- relative viability (NCI-H1793; first compound 0.08 µM): 0.998
- relative viability (NCI-H1793; first compound 0.253 µM): 0.835
- relative viability (NCI-H1793; first compound 0.8 µM): 0.796
- relative viability (NCI-H1793; first compound 2.53 µM): 0.957
- relative viability (NCI-H3122; first compound 0.08 µM): 0.625
- relative viability (NCI-H3122; first compound 0.253 µM): 0.549
- relative viability (NCI-H3122; first compound 0.8 µM): 0.581
- relative viability (NCI-H3122; first compound 2.53 µM): 0.608
- relative viability (NCI-H2023; first compound 0.08 µM): 0.438
- relative viability (NCI-H2023; first compound 0.253 µM): 0.415
- relative viability (NCI-H2023; first compound 0.8 µM): 0.516
- relative viability (NCI-H2023; first compound 2.53 µM): 0.469
- relative viability (NCI-H1650; first compound 0.08 µM): 0.803
- relative viability (NCI-H1650; first compound 0.8 µM): 0.757
- relative viability (NCI-H1650; first compound 2.53 µM): 0.682
- relative viability (EPLC-272H; first compound 0.253 µM): 0.732
- relative viability (EPLC-272H; first compound 0.8 µM): 0.991
- relative viability (EPLC-272H; first compound 2.53 µM): 0.754
- relative viability (H3255; first compound 0.08 µM): 0.552
- relative viability (H3255; first compound 0.253 µM): 0.529
- relative viability (H3255; first compound 0.8 µM): 0.588
- relative viability (H3255; first compound 2.53 µM): 0.56
- relative viability (LOU-NH91; first compound 0.08 µM): 0.908
- relative viability (LOU-NH91; first compound 0.253 µM): 0.854
- relative viability (LOU-NH91; first compound 0.8 µM): 0.999
- relative viability (LOU-NH91; first compound 2.53 µM): 0.947
- relative viability (COR-L23; first compound 0.08 µM): 0.324
- relative viability (COR-L23; first compound 0.253 µM): 0.284
- relative viability (COR-L23; first compound 0.8 µM): 0.395
- relative viability (COR-L23; first compound 2.53 µM): 0.352
- relative viability (201T; first compound 0.08 µM): 0.819
- relative viability (201T; first compound 0.253 µM): 0.828
- relative viability (201T; first compound 0.8 µM): 0.846
- relative viability (201T; first compound 2.53 µM): 0.876
- relative viability (NCI-H2347; first compound 0.08 µM): 0.47
- relative viability (NCI-H2347; first compound 0.253 µM): 0.596
- relative viability (NCI-H2347; first compound 0.8 µM): 0.635
- relative viability (NCI-H2347; first compound 2.53 µM): 0.615
